Measurements from patent US20230117034A1, “PYRAZOLOTRIAZINES” (Bayer Aktiengesellschaft, priority 2019, published 2023).

Key:
[1] = tested on: CAL-120, human breast adenocarcinoma cells; assay: Proliferation assay CAL-120 (crystal violet, 4 days); assay type: cell-based; settings: Homo sapiens, CAL-120, 96 h, CAL-120 cells, median, read-out: Prolif-CAL-120, IC50-[mol/l] (median)
Summary of the method: (§1)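 IC50 from a 4-parameter fit of crystal violet absorbance (595 nm), scaled between the day-of-dosing plate (0%) and vehicle cells (100%). MDA-MB-231 or CAL-120 cells were treated for 4 days with 0.01–10 micromol/L compound in 0.1% DMSO after 24 h attachment.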

[2] = molecular target: T1, CDK12 (nuclear staining in CAL-120 cells) (Homo sapiens, UniProt Q9NYV4); assay: CDK12 nuclear protein level: immunofluorescence/high content analysis (CAL-120); assay type: cell-based; settings: for DC50: CAL-120 cells, 24 h, immunofluorescence, 50% reduction of nuclear CDK12 staining intensity, median, read-out: CDK12 degradation IF, DC50- [mol/l] (median); for (IC50 CDK12 high ATP) to (Degradation DC50 CDK12) ratio: ratio of IC50 CDK12 high ATP kinase assay to DC50 CDK12 degradation (IF, CAL-120)
T1 construct: endogenous in cells; host or cells: CAL-120 human breast cancer cells (DSMZ ACC 459)
T1 sequence (Q9NYV4 whole entry): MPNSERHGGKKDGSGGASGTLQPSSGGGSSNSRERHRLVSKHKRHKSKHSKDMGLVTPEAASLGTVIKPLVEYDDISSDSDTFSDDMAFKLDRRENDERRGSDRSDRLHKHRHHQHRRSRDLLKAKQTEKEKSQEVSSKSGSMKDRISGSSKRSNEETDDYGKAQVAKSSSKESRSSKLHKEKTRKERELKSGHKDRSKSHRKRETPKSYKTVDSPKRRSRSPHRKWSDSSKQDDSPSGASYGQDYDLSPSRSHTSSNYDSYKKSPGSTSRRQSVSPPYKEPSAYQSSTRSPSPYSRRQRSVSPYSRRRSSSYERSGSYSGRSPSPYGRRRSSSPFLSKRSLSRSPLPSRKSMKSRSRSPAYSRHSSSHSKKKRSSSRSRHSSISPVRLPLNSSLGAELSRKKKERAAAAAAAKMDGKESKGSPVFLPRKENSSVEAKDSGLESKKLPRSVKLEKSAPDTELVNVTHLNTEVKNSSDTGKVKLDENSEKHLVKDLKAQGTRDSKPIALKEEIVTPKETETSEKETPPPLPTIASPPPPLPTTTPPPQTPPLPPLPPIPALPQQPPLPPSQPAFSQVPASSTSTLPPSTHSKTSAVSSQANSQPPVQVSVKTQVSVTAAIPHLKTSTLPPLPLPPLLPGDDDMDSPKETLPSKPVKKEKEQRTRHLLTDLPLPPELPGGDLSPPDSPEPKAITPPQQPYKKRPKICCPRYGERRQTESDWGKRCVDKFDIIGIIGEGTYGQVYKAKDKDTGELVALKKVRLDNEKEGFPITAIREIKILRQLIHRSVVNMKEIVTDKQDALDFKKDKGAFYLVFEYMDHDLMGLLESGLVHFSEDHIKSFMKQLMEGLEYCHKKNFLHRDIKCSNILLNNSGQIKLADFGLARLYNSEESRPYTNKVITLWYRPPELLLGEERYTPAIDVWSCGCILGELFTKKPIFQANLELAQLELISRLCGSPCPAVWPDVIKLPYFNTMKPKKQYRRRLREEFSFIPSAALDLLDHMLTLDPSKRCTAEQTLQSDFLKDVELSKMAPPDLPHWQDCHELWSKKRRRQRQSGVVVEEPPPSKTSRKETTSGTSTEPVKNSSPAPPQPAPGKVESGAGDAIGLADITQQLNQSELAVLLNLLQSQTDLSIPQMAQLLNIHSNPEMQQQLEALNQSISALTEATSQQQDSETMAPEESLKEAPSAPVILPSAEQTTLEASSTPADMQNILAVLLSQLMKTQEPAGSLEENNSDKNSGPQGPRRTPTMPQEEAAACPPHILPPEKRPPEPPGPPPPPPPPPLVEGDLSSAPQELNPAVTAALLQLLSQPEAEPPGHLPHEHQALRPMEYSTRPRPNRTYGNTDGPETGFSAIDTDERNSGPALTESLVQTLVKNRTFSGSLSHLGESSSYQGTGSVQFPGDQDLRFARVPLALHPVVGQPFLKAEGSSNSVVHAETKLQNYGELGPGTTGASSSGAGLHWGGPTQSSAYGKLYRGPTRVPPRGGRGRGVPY
T1 sequence (O75909 whole entry partner): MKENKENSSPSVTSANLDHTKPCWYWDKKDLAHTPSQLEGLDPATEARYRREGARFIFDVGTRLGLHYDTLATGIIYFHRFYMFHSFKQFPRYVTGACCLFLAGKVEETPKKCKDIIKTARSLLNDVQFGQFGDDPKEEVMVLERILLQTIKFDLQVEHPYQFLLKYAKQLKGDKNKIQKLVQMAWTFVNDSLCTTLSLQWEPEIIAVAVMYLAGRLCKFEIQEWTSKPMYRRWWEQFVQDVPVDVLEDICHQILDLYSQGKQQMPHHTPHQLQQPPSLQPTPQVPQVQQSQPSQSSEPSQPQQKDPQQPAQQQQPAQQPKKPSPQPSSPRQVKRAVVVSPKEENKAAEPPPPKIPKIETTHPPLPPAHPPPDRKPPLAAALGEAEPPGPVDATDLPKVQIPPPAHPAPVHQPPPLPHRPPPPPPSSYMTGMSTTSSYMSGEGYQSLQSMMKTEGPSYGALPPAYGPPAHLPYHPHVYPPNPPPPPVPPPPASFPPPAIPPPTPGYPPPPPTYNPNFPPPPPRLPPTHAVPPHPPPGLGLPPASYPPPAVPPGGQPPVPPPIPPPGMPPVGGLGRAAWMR
Summary of the method: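 DC50 is the degrader concentration that halves nuclear CDK12 immunofluorescence relative to controls, measured by high-content imaging. CAL-120 cells were exposed to compound for 24 h at 37 °C before PFA fixation, and signal was normalized to DMSO and control wells.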

[3] = tested on: BRCA1 mRNA expression in MDA-MB-231 cells; assay: qRT-PCR assay: BRCA1 mRNA expression in MDA-MB-231; assay type: cell-based, human; settings: Homo sapiens, MDA-MB-231, Inhibition of BRCA1 mRNA expression in MDA-MB-231 cells; median; read-out: RTqPCR-MDA-MB-231, IC50, BRCA1 (median)
Summary of the method: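 BRCA1 transcript by RT-qPCR relative to GAPDH, from 600 ng RNA converted to cDNA. MDA-MB-231 cells plated at 200,000/well received test compound continuously for 24 h, starting 24 h post-seeding.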

[4] = tested on: MDA-MB-231, human breast cancer cells; assay: Proliferation assay MDA-MB-231 (crystal violet, 4 days); assay type: cell-based; settings: Homo sapiens, MDA-MB-231, 96 h, MDA-MB-231 cells, median, read-out: Prolif-MDA MB-231, IC50-[mol/l] (median)
Summary of the method: as §1

| SMILES | IC50 [1] [nM] | DC50 [2] [nM] | IC50 [3] [nM] | (IC50 CDK12 high ATP) to (Degradation DC50 CDK12) ratio [2] | IC50 [4] [nM] |
| --- | --- | --- | --- | --- | --- |
| Fc1ccc(-c2nnc(CNc3nc(N4CCOCC4)nc4c(Br)cnn34)[nH]2)c(F)c1 [Example 41, 8-bromo-N-{[5-(2,4-difluorophenyl)-4H-1,2,4-triazol-3-yl]methyl}-2-(morpholin-4-yl)pyrazolo[1,5-a][1,3,5]triazin-4-amine] | 11800 | 4.06 | 3670 |  |  |
| Brc1cnn2c(NCc3nc4ccccc4[nH]3)nc(OC3CCCCC3)nc12 [Example 406, N-[(1H-benzimidazol-2-yl)methyl]-8-bromo-2-(cyclohexyloxy)pyrazolo[1,5-a][1,3,5]triazin-4-amine] | 62.2 | 125 |  | >160 | 283 |
| COc1cccc2nc(CNc3nc(N4CCOCC4)nc4c(-c5ccnnc5)cnn34)[nH]c12.O=C(O)C(F)(F)F [Example 439, trifluoroacetic acid N-[(7-methoxy-1H-benzimidazol-2-yl)methyl]-2-(morpholin-4-yl)-8-(pyridazin-4-yl)pyrazolo[1,5-a][1,3,5]triazin-4-amine] | 36.3 | 4.65 |  | 850 | 180 |
| CC(C)COc1nc(NCc2nc3ccccc3[nH]2)n2ncc(Br)c2n1 [Example 409, N-[(1H-benzimidazol-2-yl)methyl]-8-bromo-2-(2-methylpropoxy)pyrazolo[1,5-a][1,3,5]triazin-4-amine] | 99 | 29.8 |  | >531 | 343 |
| O=C(O)C(F)(F)F.c1ccc2[nH]c(CNc3nc(N4CCOCC4)nc4c(-c5ccnnc5)cnn34)nc2c1 [Example 438, trifluoroacetic acid N-[(1H-benzimidazol-2-yl)methyl]-2-(morpholin-4-yl)-8-(pyridazin-4-yl)pyrazolo[1,5-a][1,3,5]triazin-4-amine] | 44.6 | 138 |  | >57 | 283 |
| CC(C)c1cnn2c(NCc3nnc(-c4ccccc4)[nH]3)nc(N3CCN(C)CC3)nc12 [Example 37, 2-(4-methylpiperazin-1-yl)-N-[(5-phenyl-4H-1,2,4-triazol-3-yl)methyl]-8-(propan-2-yl)pyrazolo[1,5-a][1,3,5]triazin-4-amine] |  | 42.8 |  | >467 |  |
| Cc1cnn2c(NCc3nc4ccccc4[nH]3)nc(N3CC4CCC(C3)N4)nc12 [Example 401, N-[(1H-benzimidazol-2-yl)methyl]-2-(3,8-diazabicyclo[3.2.1]octan-3-yl)-8-methylpyrazolo[1,5-a][1,3,5]triazin-4-amine] | 43.5 | 30.8 |  | >649 | 132 |
| Brc1cnn2c(NCc3nc4ccccc4[nH]3)nc(OCCN3CCCC3)nc12 [Example 404, N-[(1H-benzimidazol-2-yl)methyl]-8-bromo-2-[2-(pyrrolidin-1-yl)ethoxy]pyrazolo[1,5-a][1,3,5]triazin-4-amine] | 189 | 114 |  | >175 | 1840 |
| CC(C)c1cnn2c(NCc3ncc(-c4ccccc4)[nH]3)nc(N(C)CC(C)(C)O)nc12 [Example 35, 2-methyl-1-{methyl[4-{[(5-phenyl-1H-imidazol-2-yl)methyl]amino}-8-(propan-2-yl)pyrazolo[1,5-a][1,3,5]triazin-2-yl]amino}propan-2-ol] |  | 27.3 | 39 | 81 |  |
| Cc1cnn2c(NCc3nc4ccccc4[nH]3)nc(N(C)CC(C)(C)O)nc12 [Example 397, 1-[(4-{[(1H-benzimidazol-2-yl)methyl]amino}-8-methylpyrazolo[1,5-a][1,3,5]triazin-2-yl)(methyl)amino]-2-methylpropan-2-ol] | 171 | 28.1 |  | >623 | 399 |
| CN(C)CCOc1nc(NCc2nc3ccccc3[nH]2)n2ncc(Br)c2n1 [Example 399, N-[(1H-benzimidazol-2-yl)methyl]-8-bromo-2-[2-(dimethylamino)ethoxy]pyrazolo[1,5-a][1,3,5]triazin-4-amine] | 83 | 66 |  | >303 | 384 |
| CC(C)c1cnn2c(NCc3ncc(-c4ccccc4)[nH]3)nc(N3CCCCC3)nc12 [Example 36, N-[(5-phenyl-1H-imidazol-2-yl)methyl]-2-(piperidin-1-yl)-8-(propan-2-yl)pyrazolo[1,5-a][1,3,5]triazin-4-amine] |  | 86.5 | 128 | >231 |  |
| COc1cccc2nc(CNc3nc(N4CCN(C)CC4)nc4c(-c5nccs5)cnn34)[nH]c12 [Example 416, N-[(7-methoxy-1H-benzimidazol-2-yl)methyl]-2-(4-methylpiperazin-1-yl)-8-(1,3-thiazol-2-yl)pyrazolo[1,5-a][1,3,5]triazin-4-amine] | 358 | 26.1 |  | >765 | 986 |
| NCCOCCOCCNc1nc(NCc2nc3ccccc3[nH]2)n2ncc(Br)c2n1 [Example 412, N2-{2-[2-(2-aminoethoxy)ethoxy]ethyl}-N4-[(1H-benzimidazol-2-yl)methyl]-8-bromopyrazolo[1,5-a][1,3,5]triazine-2,4-diamine] | 1130 | 77.4 |  | >74 | 1910 |
| COc1cccc2[nH]c(CNc3nc(N4CCOCC4)nc4c(-c5nccs5)cnn34)nc12 [Example 414, N-[(4-methoxy-1H-benzimidazol-2-yl)methyl]-2-(morpholin-4-yl)-8-(1,3-thiazol-2-yl)pyrazolo [1,5-a][1,3,5]triazin-4-amine] | 80.4 | 32.5 |  | >176 | 687 |
| CN1CCN(c2nc(NCc3nc4cc(Cl)c(Cl)cc4[nH]3)n3ncc(-c4cnn(C)c4)c3n2)CC1 [Example 420, N-[(5,6-dichloro-1H-benzimidazol-2-yl)methyl]-2-(4-methylpiperazin-1-yl)-8-(1-methyl-1H-pyrazol-4-yl)pyrazolo[1,5-a][1,3,5]triazin-4-amine] | 209 | 80.6 |  | >248 | 525 |
| Clc1cc2nc(CNc3nc(N4CCOCC4)nc4c(-c5cscn5)cnn34)[nH]c2cc1Cl [Example 424, N-[(5,6-dichloro-1H-benzimidazol-2-yl)methyl]-2-(morpholin-4-yl)-8-(1,3-thiazol-4-yl)pyrazolo [1,5-a][1,3,5]triazin-4-amine] | 41.1 | 38.1 |  | >524 | 73.7 |
| COC(C)(C)COc1nc(NCc2nc3ccccc3[nH]2)n2ncc(Br)c2n1 [Example 403, N-[(1H-benzimidazol-2-yl)methyl]-8-bromo-2-(2-methoxy-2-methylpropoxy)pyrazolo[1,5-a][1,3,5]triazin-4-amine] | 151 | 43.1 |  | >464 | 524 |
| Brc1cnn2c(NCc3nc4ccccc4[nH]3)nc(OC3CCOCC3)nc12 [Example 405, N-[(1H-benzimidazol-2-yl)methyl]-8-bromo-2-[(oxan-4-yl)oxy]pyrazolo[1,5-a][1,3,5]triazin-4-amine] | 135 | 113 |  | >176 | 439 |
| CCNc1nc(NCc2nnc(-c3ccccc3)[nH]2)n2ncc(C(C)C)c2n1 [Example 38, N^2-ethyl-N^4-[(5-phenyl-4H-1,2,4-triazol-3-yl)methyl]-8-(propan-2-yl)pyrazolo[1,5-a][1,3,5]triazine-2,4-diamine] |  | 37.2 |  | >153 |  |
| Cc1cnn2c(NCc3nc4ccccc4[nH]3)nc(N3CCOCC3)nc12 [Example 393, N-[(1H-benzimidazol-2-yl)methyl]-8-methyl-2-(morpholin-4-yl)pyrazolo[1,5-a][1,3,5]triazin-4-amine] | 46.8 | 22.3 |  | >897 | 120 |
| Brc1cnn2c(NCc3nc4ccccc4[nH]3)nc(OCC3CC3)nc12 [Example 408, N-[(1H-benzimidazol-2-yl)methyl]-8-bromo-2-(cyclopropylmethoxy)pyrazolo[1,5-a][1,3,5]triazin-4-amine] | 252 | 56.8 |  | >352 | 741 |
